Results: US20090023714A1, “COMBINED PREPARATION OF A THIAZIDE DIURETIC AND A LOOP DIURETIC” (HEXAL AG, priority 2005, published 2009)
“Also recorded” adds a separate entry of the source. Blank lines part the entries; values can stand above or below the compound they belong to.

Tests used:
healthy volunteers [1] = test: Dose-response studies of natriuretic effect in healthy volunteers; assay type: in vivo, human; conditions: for range of linear dose-responsiveness of natriuretic effect / dose at which the maximum natriuretic effect is reached: FIG. 1; for dose at which the maximum natriuretic effect is reached: net Na+ excretion for the duration of action, oral; for duration of action (time until baseline excretion is reached again): oral single dose
Method: (§1) The ethically approved trial was performed on 12 healthy volunteers (28-48years in age, 6 males, 6 females), who had given their written informed consent to the study. Prior to administration of a drug, the participants underwent a clinical check-up. The participants were kept on a standard diet, receiving a defined fluid (1.5 l/day) and salt intake (6 g NaCl; 100 mmol Na^+/day) three days before and throughout the study.
In accordance with earlier studies (35), urine was collected before the treatment period, i.e., from 24 hrs to 12 hrs and from 12 hrs to 0 hrs prior to oral drug administration (8 a.m.). From that point of time, urine was collected following drug administration in 2 hour intervals until the 6th hour and then from the 6th to 9th hour, from the 9th to 12th hour and from the 12th to […]. An aliquot of the defined volume of the respective collection period was frozen until analyzed for Na^+, K^+, Cl^−, Ca^2+ Mg^2+ and creatinine using a “MODULAR” Analyzer (Roche Comp., Switzerland).
(§2) All data are expressed as mean values (±SEM). The diuretic-induced “net excretion” is defined as the difference between total excretion and control excretion (“baseline”) obtained for the respective period prior to treatment. The effect of diuretic monotherapy is compared with the combined treatment using ANOVA.

healthy volunteers [2] = test: Diuretic effects on urinary excretion of Na+, K+, Mg2+ and Ca2+ in healthy volunteers (monotherapy and combinations); assay type: in vivo, human; conditions: for Na+ excretion during the first 3 hrs, monotherapy: 10 mg TORA, 25 mg HCT, 50 mg TA; for total K+ excretion, monotherapy: usual doses, 0-24 hrs and sub-periods, FIG. 2b
Method: as §1
From that point of time, urine was collected following drug administration in 2 hour intervals until the 6th hour and then from the 6th to 9th hour, from the 9th to 12th hour and from the 12th to […]. An aliquot of the defined volume of the respective collection period was frozen until analyzed for Na^+, K^+, Cl^−, Ca^2+ Mg^2+ and creatinine using a “MODULAR” Analyzer (Roche Comp., Switzerland).
as §2

SMILES: NS(=O)(=O)c1cc2c(cc1Cl)NCNS2(=O)=O [HCT, hydrochlorothiazide]
range of linear dose-responsiveness of natriuretic effect (healthy volunteers [1]): narrow range of almost linear dose-responsiveness | cumulative Na+ excretion induced by 25 mg compared with 50 mg (healthy volunteers [1]; during 12 hrs (time until baseline excretion is reached again)): not significantly different | dose at which the maximum natriuretic effect is reached (healthy volunteers [1]): 25 mg | duration of action (time until baseline excretion is reached again) (healthy volunteers [1]): 12 h | K+ excretion correlated with Na+ excretion (K+/Na+ ratio), 0-12 hrs (healthy volunteers [2]; 0-12 hrs, HCT alone versus HCT with 5 mg TORA, p<0.01): 0.40 | K+ excretion correlated with Na+ excretion (K+/Na+ ratio), 0-24 hrs (healthy volunteers [2]; 0-24 hrs, HCT alone versus HCT with 5 mg TORA, p<0.01): 0.43 | Na+ excretion during the first 3 hrs, monotherapy (healthy volunteers [2]; FIG. 2a): higher Na^+ excretion than TA only during the first 3 hrs | K+/Na+ excretion ratio within the first three hours, monotherapy (healthy volunteers [2]; FIG. 2c): nearly triple of that of the loop diuretic | total K+ excretion, monotherapy (healthy volunteers [2]): higher than that following administration of the loop diuretic

Mg2+ excretion, monotherapy (healthy volunteers [2]; loop diuretic versus thiazide, FIG. 3): less magnesiuretic than the thiazide
SMILES: Cc1cccc(Nc2ccncc2S(=O)(=O)NC(=O)NC(C)C)c1 [TORA, torasemide]
range of linear dose-responsiveness of natriuretic effect (healthy volunteers [1]): broader range of linear dose-responsiveness | duration of action (time until baseline excretion is reached again) (healthy volunteers [1]): 6 h | Na+ excretion during the 6-12 hrs and 12-24 hrs periods (rebound) (healthy volunteers [2]; 10 mg TORA monotherapy, FIG. 2a): dropped below levels prior to drug administration | Na+ excretion during the first 3 hrs, monotherapy (healthy volunteers [2]; FIG. 2a): by far in the highest increase of Na excretion | K+/Na+ excretion ratio 6-24 hrs, monotherapy (healthy volunteers [2]; after the duration of action, Na+ excretion below baseline, FIG. 2c): highest only after the duration of action of the loop diuretic | Ca2+ excretion in relation to Na+ excretion, monotherapy (healthy volunteers [2]; loop diuretic versus thiazide, FIG. 2d): higher for the loop diuretic than for the thiazide

SMILES: Nc1nc(N)c2nc(-c3ccccc3)c(N)nc2n1 [TA, triamterene]
range of linear dose-responsiveness of natriuretic effect (healthy volunteers [1]): narrow range of almost linear dose-responsiveness | dose at which the maximum natriuretic effect is reached (healthy volunteers [1]): 50 mg | total K+ excretion, monotherapy (healthy volunteers [2]): less K^+ loss than HCT or TORA only for the 0-3 hrs period; also recorded: not superior to the loop diuretic
